# Assay results: PubChem BioAssay AID1963851 (Molecular Pharmacology Branch, DTP, NCI, 2024)
# Test system: 188146-221-R-J1-PDC complex spheroid viability
# Assay: Anticancer human tumor 188146-221-R-J1-PDC patient-derived colon adenocarcinoma cell line growth inhibition [POLQ]
# Settings: for IC50: curve of first compound; for viability, T/C: stronger effect = lower value
# Summary of the method: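 Complex spheroid viability model combining PDC tumour cells with endothelial (HUVEC) and MSC stromal cells. Novobiocin, ART-558 or RP6685 were tested singly and in combination with standard and investigational anticancer drugs. Each was titrated in half-log steps from near clinical Cmax, or from 10 microM where Cmax was unknown.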
# [1] = second compound 0.0316 µM, first compound 0.0316 µM
# [2] = second compound 0.0316 µM, first compound 0.1 µM
# [3] = second compound 0.0316 µM, first compound 0.316 µM
# [4] = second compound 0.0316 µM, first compound 1 µM
# [5] = second compound 0.0316 µM, first compound 3.16 µM
# [6] = second compound 0.0316 µM, first compound 10 µM
# [7] = second compound 0.1 µM, first compound 0.0316 µM
# [8] = second compound 0.1 µM, first compound 0.1 µM
# [9] = second compound 0.1 µM, first compound 0.316 µM
# [10] = second compound 0.1 µM, first compound 1 µM
# [11] = second compound 0.1 µM, first compound 3.16 µM
# [12] = second compound 0.1 µM, first compound 10 µM
# [13] = second compound 0.316 µM, first compound 0.0316 µM
# [14] = second compound 0.316 µM, first compound 0.1 µM
# [15] = second compound 0.316 µM, first compound 0.316 µM
# [16] = second compound 0.316 µM, first compound 1 µM
# [17] = second compound 0.316 µM, first compound 3.16 µM
# [18] = second compound 0.316 µM, first compound 10 µM
# [19] = second compound 1 µM, first compound 0.0316 µM
# [20] = second compound 1 µM, first compound 0.1 µM
# [21] = second compound 1 µM, first compound 0.316 µM
# [22] = second compound 1 µM, first compound 1 µM
# [23] = second compound 1 µM, first compound 3.16 µM
# [24] = second compound 1 µM, first compound 10 µM
# [25] = second compound 3.16 µM, first compound 0.0316 µM
# [26] = second compound 3.16 µM, first compound 0.1 µM
# [27] = second compound 3.16 µM, first compound 0.316 µM
# [28] = second compound 3.16 µM, first compound 1 µM
# [29] = second compound 3.16 µM, first compound 3.16 µM
# [30] = second compound 3.16 µM, first compound 10 µM
# [31] = second compound 10 µM, first compound 0.0316 µM
# [32] = second compound 10 µM, first compound 0.1 µM
# [33] = second compound 10 µM, first compound 0.316 µM
# [34] = second compound 10 µM, first compound 1 µM
# [35] = second compound 10 µM, first compound 3.16 µM
# [36] = second compound 10 µM, first compound 10 µM
# 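Further: spheroids exposed to compounds for seven days.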
# 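Wherever viability, T/C is given: 100% = DMSO vehicle control viability.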
smiles,measurement,setting,value
Nc1ccn(C2OC(CO)C(O)C2(F)F)c(=O)n1 (stereo unspecified) + COC1C(OC(N)=O)C(O)C(Oc2ccc3c(O)c(NC(=O)c4ccc(O)c(CC=C(C)C)c4)c(=O)oc3c2C)OC1(C)C,IC50,second compound 0.0316 µM,< 0.0316 µM
same,IC50,second compound 0.1 µM,0.0321 µM
same,IC50,second compound 0.316 µM,< 0.0316 µM
same,IC50,second compound 1 µM,< 0.0316 µM
same,IC50,second compound 3.16 µM,< 0.0316 µM
same,IC50,second compound 10 µM,< 0.0316 µM
same,"viability, T/C",[1],46.8%
same,"viability, T/C",[2],29.5%
same,"viability, T/C",[3],17.4%
same,"viability, T/C",[4],14.4%
same,"viability, T/C",[5],15.2%
same,"viability, T/C",[6],13.2%
same,"viability, T/C",[7],50.4%
same,"viability, T/C",[8],29.4%
same,"viability, T/C",[9],13.8%
same,"viability, T/C",[10],12.5%
same,"viability, T/C",[11],14.8%
same,"viability, T/C",[12],14.3%
same,"viability, T/C",[13],41.1%
same,"viability, T/C",[14],28.7%
same,"viability, T/C",[15],21.8%
same,"viability, T/C",[16],12.2%
same,"viability, T/C",[17],12%
same,"viability, T/C",[18],11%
same,"viability, T/C",[19],41.5%
same,"viability, T/C",[20],24.8%
same,"viability, T/C",[21],19.2%
same,"viability, T/C",[22],13.4%
same,"viability, T/C",[23],13.5%
same,"viability, T/C",[24],12.6%
same,"viability, T/C",[25],46.3%
same,"viability, T/C",[26],26.1%
same,"viability, T/C",[27],16.2%
same,"viability, T/C",[28],13.5%
same,"viability, T/C",[29],14%
same,"viability, T/C",[30],13.9%
same,"viability, T/C",[31],45.6%
same,"viability, T/C",[32],20.5%
same,"viability, T/C",[33],16.1%
same,"viability, T/C",[34],12.4%
same,"viability, T/C",[35],16.4%
same,"viability, T/C",[36],13.3%
O=C(c1cc(Cc2n[nH]c(=O)c3ccccc23)ccc1F)N1CCN(C(=O)C2CC2)CC1 + COC1C(OC(N)=O)C(O)C(Oc2ccc3c(O)c(NC(=O)c4ccc(O)c(CC=C(C)C)c4)c(=O)oc3c2C)OC1(C)C,IC50,second compound 0.0316 µM,> 10 µM
same,IC50,second compound 0.1 µM,> 10 µM
same,IC50,second compound 0.316 µM,> 10 µM
same,IC50,second compound 1 µM,> 10 µM
same,IC50,second compound 3.16 µM,> 10 µM
same,IC50,second compound 10 µM,> 10 µM
same,"viability, T/C",[1],93.5%
same,"viability, T/C",[2],88.6%
same,"viability, T/C",[3],100%
same,"viability, T/C",[4],98.4%
same,"viability, T/C",[5],99.5%
same,"viability, T/C",[6],74.3%
same,"viability, T/C",[7],107%
same,"viability, T/C",[8],102%
same,"viability, T/C",[9],97.1%
same,"viability, T/C",[10],106%
same,"viability, T/C",[11],91.3%
same,"viability, T/C",[12],85.2%
same,"viability, T/C",[13],108%
same,"viability, T/C",[14],94.1%
same,"viability, T/C",[15],97.7%
same,"viability, T/C",[16],105%
same,"viability, T/C",[17],90.7%
same,"viability, T/C",[18],72.7%
same,"viability, T/C",[19],106%
same,"viability, T/C",[20],104%
same,"viability, T/C",[21],104%
same,"viability, T/C",[22],96.3%
same,"viability, T/C",[23],89.5%
same,"viability, T/C",[24],74.7%
same,"viability, T/C",[25],108%
same,"viability, T/C",[26],107%
same,"viability, T/C",[27],101%
same,"viability, T/C",[28],91.7%
same,"viability, T/C",[29],105%
same,"viability, T/C",[30],96.6%
same,"viability, T/C",[31],101%
same,"viability, T/C",[32],103%
same,"viability, T/C",[33],98.8%
same,"viability, T/C",[34],97.1%
same,"viability, T/C",[35],108%
same,"viability, T/C",[36],80.5%
O=c1[nH]cc(F)c(=O)[nH]1 + COC1C(OC(N)=O)C(O)C(Oc2ccc3c(O)c(NC(=O)c4ccc(O)c(CC=C(C)C)c4)c(=O)oc3c2C)OC1(C)C,IC50,second compound 0.0316 µM,1.01 µM
same,IC50,second compound 0.1 µM,1.24 µM
same,IC50,second compound 0.316 µM,0.925 µM
same,IC50,second compound 1 µM,0.984 µM
same,IC50,second compound 3.16 µM,1.79 µM
same,IC50,second compound 10 µM,1.5 µM
same,"viability, T/C",[1],107%
same,"viability, T/C",[2],106%
same,"viability, T/C",[3],72.7%
same,"viability, T/C",[4],53.1%
same,"viability, T/C",[5],39.8%
same,"viability, T/C",[6],34.9%
same,"viability, T/C",[7],95.2%
same,"viability, T/C",[8],102%
same,"viability, T/C",[9],75.4%
same,"viability, T/C",[10],53.7%
same,"viability, T/C",[11],41.4%
same,"viability, T/C",[12],35%
same,"viability, T/C",[13],95.8%
same,"viability, T/C",[14],98.5%
same,"viability, T/C",[15],75.4%
same,"viability, T/C",[16],49.3%
same,"viability, T/C",[17],37.6%
same,"viability, T/C",[18],36.6%
same,"viability, T/C",[19],111%
same,"viability, T/C",[20],101%
same,"viability, T/C",[21],72.4%
same,"viability, T/C",[22],49.6%
same,"viability, T/C",[23],43.8%
same,"viability, T/C",[24],36%
same,"viability, T/C",[25],102%
same,"viability, T/C",[26],92.3%
same,"viability, T/C",[27],76%
same,"viability, T/C",[28],52.1%
same,"viability, T/C",[29],49%
same,"viability, T/C",[30],41.3%
same,"viability, T/C",[31],97%
same,"viability, T/C",[32],90.2%
same,"viability, T/C",[33],80.7%
same,"viability, T/C",[34],53.3%
same,"viability, T/C",[35],43.2%
same,"viability, T/C",[36],40.6%
